Source: PMC8537711, “Mechanistic Insights into Binding of Ligands with Thiazolidinedione Warhead to Human Histone Deacetylase 4” (Pharmaceuticals, 2021)

Assays:
cdHDAC4wt [1] = molecular target: T1, cdHDAC4wt (Homo sapiens, UniProt P56524); assay: Association kinetics (semi continuous enzyme activity assay, kobs vs inhibitor concentration); type: biochemical; conditions: for residence time: 1/koff (two step) or 1/k−3 (one step), read-out: RT (KF), residence time from kinetic fit; for forward isomerization rate constant (k2) / koff: two step model, isomerization rate; for koff: y-axis intercept; for Ki: two step induced fit model, read-out: K1 (equilibrium constant of initial encounter complex)
T1 construct: consists of 410 amino acids (human HDAC4 T648-T1057) and has a molecular weight of 44.2 kDa; His6-SUMO (cleaved yes); made in house; host or cells: E. coli (BL21) DE3 pLysS, pET14b vector
T1 sequence (P56524 648-1057): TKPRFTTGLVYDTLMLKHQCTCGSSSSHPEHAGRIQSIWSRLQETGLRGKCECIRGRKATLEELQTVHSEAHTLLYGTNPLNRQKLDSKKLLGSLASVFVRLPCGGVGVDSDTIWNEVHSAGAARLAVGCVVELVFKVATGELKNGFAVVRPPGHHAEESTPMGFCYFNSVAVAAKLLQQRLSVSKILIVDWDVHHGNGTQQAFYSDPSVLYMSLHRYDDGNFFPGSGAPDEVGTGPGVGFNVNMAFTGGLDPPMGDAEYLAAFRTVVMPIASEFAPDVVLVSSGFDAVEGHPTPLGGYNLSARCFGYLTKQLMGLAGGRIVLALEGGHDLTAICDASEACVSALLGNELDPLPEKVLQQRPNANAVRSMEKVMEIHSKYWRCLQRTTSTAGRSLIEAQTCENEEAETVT
Method: A serial dilution of inhibitor beginning at 10-fold of respective IC50-value in assay buffer (25 mM Tris-HCl, pH 8.0, 75 mM KCl, 0.001% Pluronic F-127) was made in a black 96-well microtiter half-area plate (Greiner, Kremsmuenster, Austria). The dilutions were added to 3 nM cdHDAC4wt. Shortly after, the reaction was initiated by adding 20 µM Boc-Lys{TFA}-7-Amino-4-methylcoumarin (Bachem, Bubendorf, Switzerland) as substrate. […] Finally 0.4 mg/mL trypsin was added to split the deacetylated substrate in the fluorescent product which was measured at 450 nm (λEx = 350 nm) (PherStar Plus, BMG Labtech, Ortenberg, Germany). […] The standardized RFUs were plotted against the incubation time. […] Due to this knowledge the data were fitted via non linear regression with GraphPad Prism program to the following equation by Copeland [27]:(2) Y=νs·t+νi−νs/kobs·(1−e^(−kobs·t))+d where vi is the initial slope, vs is the second lower slope, kobs is the respective rate constant, t is time and d the correction for possible data offset.
Afterwards kobs values were plotted against their respective inhibitor concentration.

cdHDAC4wt [2] = molecular target: T1, cdHDAC4wt; assay: Reversibility assay via rapid dilution; residence time from reversibility data; type: biochemical; conditions: first order dissociation assumed; read-out: RT (RD), residence time from rapid dilution
Method: Rapid dilution was performed by diluting the incubated mixture 100-fold with substrate (Boc-Lys{TFA}-7-Amino-4-methylcoumarin (Bachem, Bubendorf, Switzerland)) with the final substrate concentration being 20 µM. […] A positive control without TZD ligand and a blank without enzyme and TZD ligand were also carried out. […] Once again the final substrate concentration was 20 µM. […] The deacetylated substrate was converted into a fluorescent product by the addition of 0.4 mg/mL trypsin (AppliChem, Darmstadt, Germany). The release of fluorogenic substrate was followed in a microplate reader (PherStar Plus, BMG Labtech, Ortenberg, Germany) at 450 nm (λEx = 350 nm) and correlated the positive control. […] All incubations steps were performed for 60 min at 30 °C and 450 rpm. The substrate was preheated to 30 °C before the rapid dilution step.
The reciprocal values for k equals the residence time of the respective TZD ligand (residence time = koff^−1), which can be compared with the residence times gained from association data.

[3] = molecular target: T2, cdHDAC4wt (catalytic domain of human wild type histone deacetylase 4) (Homo sapiens, UniProt P56524); assay: IC50 determination, enzyme activity assay with Boc-Lys{TFA}-AMC; type: biochemical; conditions: mean ± SD, N = 3
T2 construct: consists of 410 amino acids (human HDAC4 T648-T1057) and has a molecular weight of 44.2 kDa; His6-SUMO (cleaved yes); made in house; host or cells: E. coli (BL21) DE3 pLysS, pET14b vector
T2 sequence (P56524 648-1057): as above
Method: Afterwards the enzymatic reaction was initiated by the addition of 20 µM Boc-Lys{TFA}-7-Amino-4-methylcoumarin (Bachem, Bubendorf, Switzerland) as substrate. […] The deacetylated substrate was converted into a fluorescent product by the addition of 0.4 mg/mL trypsin (AppliChem, Darmstadt, Germany). The release of fluorogenic substrate was followed in a microplate reader (PherStar Plus, BMG Labtech, Ortenberg, Germany) at 450 nm (λEx = 350 nm) and correlated to enzyme activity.
All incubations steps were performed for 60 min at 30 °C and 450 rpm.

| SMILES | melting point | also measured |
| --- | --- | --- |
| O=C1NC(=O)/C(=C/c2ccc3cc(OCC(=O)N4N=C(c5ccccc5)CC4c4ccccc4)ccc3c2)S1 (centres unmarked) [8a] |  | residence time (cdHDAC4wt [1]): 11 ± 4 min; forward isomerization rate constant (k2) (cdHDAC4wt [1]): 0.0049 ± 0.0014 s⁻¹; koff (cdHDAC4wt [1]): 0.0015 ± 0.0006 s⁻¹; Ki (cdHDAC4wt [1]): 2400 ± 1800 nM; residence time (cdHDAC4wt [2]): 19 ± 2 min; IC50 [3]: 770 ± 90 nM |
| Cc1cccc2sc(NC(=O)CN3C(=O)SC(=Cc4ccc(F)cc4)C3=O)nc12 [GB10, 2-(5-(4-fluorobenzylidene)-2,4-dioxothiazolidin-3-yl)-N-(4-methylbenzo[d]thiazol-2-yl)acetamide] | 225 to 227 °C |  |
| COc1cccc2sc(NC(=O)CN3C(=O)SC(=Cc4ccc(F)cc4)C3=O)nc12 [GB35, 2-(5-(4-fluorobenzylidene)-2,4-dioxothiazolidin-3-yl)-N-(4-methoxybenzo[d]thiazol-2-yl)acetamide] | 172 °C |  |
| COc1cccc2sc(NC(=O)CN3C(=O)SC(=Cc4ccccc4)C3=O)nc12 [GB8, 2-(5-benzylidene-2,4-dioxothiazolidin-3-yl)-N-(4-methoxybenzo[d]thiazol-2-yl)acetamide] | 157 to 159 °C |  |
| O=C1NC(=O)/C(=C/c2ccc(OCC(=O)N3N=C(c4ccc(F)cc4)CC3c3ccc(Cl)c(Cl)c3)cc2)S1 (centres unmarked) [12j] |  | residence time (cdHDAC4wt [1]): 9 ± 3 min; forward isomerization rate constant (k2) (cdHDAC4wt [1]): 0.0031 ± 0.0007 s⁻¹; koff (cdHDAC4wt [1]): 0.0018 ± 0.0005 s⁻¹; residence time (cdHDAC4wt [2]): 11 ± 5 min; IC50 [3]: 830 ± 20 nM |
| Cc1ccc(C=C2SC(=O)N(CC(=O)Nc3nc4c(Cl)cccc4s3)C2=O)cc1C [GB6, N-(4-chlorobenzo[d]thiazol-2-yl)-2-(5-(3,4-dimethylbenzylidene)-2,4-dioxothiazolidin-3-yl)acetamide] | 214 to 216 °C |  |
| Cc1ccc(C=C2SC(=O)N(CC(=O)Nc3nc4cc(C)c(C)cc4s3)C2=O)cc1C [GB26, N-(5,6-dimethylbenzo[d]thiazol-2-yl)-2-(5-(3,4-dimethylbenzylidene)-2,4-dioxothiazolidin-3-yl)acetamide] | 284 to 286 °C |  |
| Cc1ccc(C2CC(c3ccccc3)=NN2C(=O)COc2ccc3cc(/C=C4\SC(=O)NC4=O)ccc3c2)cc1 (centres unmarked) [8g] |  | residence time (cdHDAC4wt [1]): 10 ± 2 min; forward isomerization rate constant (k2) (cdHDAC4wt [1]): 0.0038 ± 0.0007 s⁻¹; koff (cdHDAC4wt [1]): 0.0016 ± 0.0003 s⁻¹; Ki (cdHDAC4wt [1]): 3000 ± 2000 nM; residence time (cdHDAC4wt [2]): 18 ± 7 min; IC50 [3]: 760 ± 80 nM |
| O=C(COc1ccc2cc(/C=C3\SC(=O)NC3=O)ccc2c1)Nc1ncccc1F [7s] |  | residence time (cdHDAC4wt [1]): 10 ± 1 min; y-intercept of kobs plot (k−3) (cdHDAC4wt [1]; linear regression, one step model): 0.0016 s⁻¹; k3 (cdHDAC4wt [1]; one step model, slope of kobs vs ligand concentration): 210 ± 40 M⁻¹ s⁻¹; k−3 (cdHDAC4wt [1]; one step model, y-intercept): 0.16 ± 0.02 s^−1 (×10^−2); residence time (cdHDAC4wt [2]): 11 ± 1 min; IC50 [3]: 780 ± 80 nM |
| Cc1ccc(C=C2SC(=O)N(CC(=O)Nc3nc4c(F)cc(F)cc4s3)C2=O)cc1 [GB19, N-(4,6-difluorobenzo[d]thiazol-2-yl)-2-(5-(4-methylbenzylidene)-2,4-dioxothiazolidin-3-yl)acetamide] | 295 to 297 °C |  |
| Cc1ccc2nc(NC(=O)CN3C(=O)SC(=Cc4ccc(Br)cc4)C3=O)sc2c1 [GB31, 2-(5-(4-bromobenzylidene)-2,4-dioxothiazolidin-3-yl)-N-(6-methylbenzo[d]thiazol-2-yl)acetamide] | 292 to 294 °C |  |
| O=C(CN1C(=O)SC(=Cc2ccccc2)C1=O)Nc1nc2c(F)cc(F)cc2s1 [GB12, 2-(5-benzylidene-2,4-dioxothiazolidin-3-yl)-N-(4,6-difluorobenzo[d]thiazol-2-yl)acetamide] | 280 to 282 °C |  |
| Cc1ccc2nc(NC(=O)CN3C(=O)SC(=Cc4ccc(F)cc4F)C3=O)sc2c1 [GB13, 2-(5-(2,4-difluorobenzylidene)-2,4-dioxothiazolidin-3-yl)-N-(6-methylbenzo[d]thiazol-2-yl)acetamide] | 266 to 268 °C |  |
| Cc1cc2nc(NC(=O)CN3C(=O)SC(=Cc4ccc(F)cc4)C3=O)sc2cc1C [GB25, N-(5,6-dimethylbenzo[d]thiazol-2-yl)-2-(5-(4-fluorobenzylidene)-2,4-dioxothiazolidin-3-yl)acetamide] | 298 to 299 °C |  |
| O=C(CN1C(=O)SC(=Cc2ccc(F)cc2F)C1=O)Nc1nc2c(F)cc(F)cc2s1 [GB29, N-(4,6-difluorobenzo[d]thiazol-2-yl)-2-(5-(2,4-difluorobenzylidene)-2,4-dioxothiazolidin-3-yl)acetamide] | 274 to 276 °C |  |
| O=C(CN1C(=O)SC(=Cc2ccc(Cl)cc2)C1=O)Nc1nc2ccc(F)cc2s1 [GB33, 2-(5-(4-chlorobenzylidene)-2,4-dioxothiazolidin-3-yl)-N-(6-fluorobenzo[d]thiazol-2-yl)acetamide] | 290 to 292 °C |  |
| Cc1ccc(C=C2SC(=O)N(CC(=O)Nc3nc4c(Cl)cccc4s3)C2=O)cc1 [GB2, N-(4-chlorobenzo[d]thiazol-2-yl)-2-(5-(4-methylbenzylidene)-2,4-dioxothiazolidin-3-yl)acetamide] | 292 to 294 °C |  |
| O=C(CN1C(=O)SC(=Cc2ccccc2)C1=O)Nc1nc2c(F)cccc2s1 [GB30, 2-(5-benzylidene-2,4-dioxothiazolidin-3-yl)-N-(4-fluorobenzo[d]thiazol-2-yl)acetamide] | 272 to 274 °C |  |
| Cc1cc2nc(NC(=O)CN3C(=O)SC(=Cc4ccccc4)C3=O)sc2cc1C [GB22, 2-(5-benzylidene-2,4-dioxothiazolidin-3-yl)-N-(5,6-dimethylbenzo[d]thiazol-2-yl)acetamide] | 276 to 278 °C |  |
| O=C(CN1C(=O)SC(=Cc2ccc(F)cc2)C1=O)Nc1nc2ccc(F)cc2s1 [GB34, N-(6-fluorobenzo[d]thiazol-2-yl)-2-(5-(4-fluorobenzylidene)-2,4-dioxothiazolidin-3-yl)acetamide] | 260 to 262 °C |  |
| Cc1ccc(C=C2SC(=O)N(CC(=O)Nc3nc4c(F)cc(F)cc4s3)C2=O)cc1C [GB20, N-(4,6-difluorobenzo[d]thiazol-2-yl)-2-(5-(3,4-dimethylbenzylidene)-2,4-dioxothiazolidin-3-yl)acetamide] | 271 to 273 °C |  |

Now from value to compound, other results behind:

| melting point | SMILES | also measured |
| --- | --- | --- |
| 265 °C (dec.) | O=C(CN1C(=O)SC(=Cc2ccccn2)C1=O)Nc1nc2ccc(F)cc2s1 [PB9, 2-(2,4-dioxo-5-(pyridin-2-ylmethylene)thiazolidin-3-yl)-N-(6-fluorobenzo[d]thiazol-2-yl)acetamide] |  |
| 295 °C (dec.) | Cc1cc2nc(NC(=O)CN3C(=O)SC(=Cc4ccccn4)C3=O)sc2cc1C [PB6, N-(5,6-dimethylbenzo[d]thiazol-2-yl)-2-(2,4-dioxo-5-(pyridin-2-ylmethylene)thiazolidin-3-yl)acetamide] |  |
| 230 °C (dec.) | CCOc1ccc2nc(NC(=O)CN3C(=O)SC(=Cc4ccccn4)C3=O)sc2c1 [PB8, 2-(2,4-dioxo-5-(pyridin-2-ylmethylene)thiazolidin-3-yl)-N-(6-ethoxybenzo[d]thiazol-2-yl)acetamide] |  |
| 294 °C (dec.) | O=C(CN1C(=O)SC(=Cc2ccccn2)C1=O)Nc1nc2c(F)cc(F)cc2s1 [PB5, N-(4,6-difluorobenzo[d]thiazol-2-yl)-2-(2,4-dioxo-5-(pyridin-2-ylmethylene)thiazolidin-3-yl)acetamide] |  |
| 260 °C (dec.) | Cc1cccc2sc(NC(=O)CN3C(=O)SC(=Cc4ccccn4)C3=O)nc12 [PB2, 2-(2,4-dioxo-5-(pyridin-2-ylmethylene)thiazolidin-3-yl)-N-(4-methylbenzo[d]thiazol-2-yl)acetamide] |  |
| 220 to 222 °C | COc1cccc2sc(NC(=O)CN3C(=O)SC(=Cc4ccccn4)C3=O)nc12 [PB7, 2-(2,4-dioxo-5-(pyridin-2-ylmethylene)thiazolidin-3-yl)-N-(4-methoxybenzo[d]thiazol-2-yl)acetamide] |  |
| 273 °C (dec.) | O=C(CN1C(=O)SC(=Cc2ccccn2)C1=O)Nc1nc2c(Cl)cccc2s1 [PB4, N-(4-chlorobenzo[d]thiazol-2-yl)-2-(2,4-dioxo-5-(pyridin-2-ylmethylene)thiazolidin-3-yl)acetamide] |  |
